Measurements reported in patent US11292788B2, “IL-17 and IFN-gamma inhibition for the treatment of autoimmune diseases and chronic inflammation” (Immunic AG, priority 2017, dated 2022).
Read-outs that look alike come from different tables or passages of the source. Blank lines part the entries; values can stand above or below the molecule they belong to.

Tests used:
Type in all cases: cell-based
IL-17A = assay: Cytokine assay: IL-17A production by human PBMC stimulated with PHA; conditions: IC50 class, read-out: IL-17A Inhib.
Experimental: (§1) Cytokine Assay: Analysis of Proliferation of and Cytokine Production by Human PBMC Stimulated with PHA
(§2) Peripheral blood mononuclear cells (PBMC) from healthy human donors were purified using Accuspin™ System-Histopaque-1077 (Sigma) according to the protocol recommended by the manufacturer. Purified PBMC were then washed twice with phosphate-buffered saline (PBS) and resuspended in RPMI1640 culture medium supplemented with 10% dialyzed heat inactivated fetal calf serum, 1.5 mM L-glutamine, 100 U penicillin/ml, and […] (all from PAN Biotech, Aidenbach, Germany). For stimulation, PBMC were seeded at 1×10^5 cells/well, activated with 2 μg/ml phytohaemagglutinin (PHA, Sigma) and incubated with the test compounds for 48 hours. IL-17A, IL-17F and INF-γ were then determined in the culture supernatant using a Luminex BioPlex system, following the manufacturer's instructions (BioRad, Munich, Germany). For screening, compounds were used at 10, 1, 0.1 and 0.01 μM. To determine the IC50, compounds were titrated semilogarithmically.
(§3) Cytokines were determined in the aforementioned culture supernatant using the following methods: IL-17A was measured using the human homodimer IL-17A ELISA Ready Set Go Kit from eBioscience (Frankfurt, Germany); IL-17F using the human IL-17F ELI-Pair from Hölzel DiagnosticaGmBH (Köln, Germany); and IFN-γ using the OptEIA human IFN-g ELISA from BD Bioscience (Heidelberg, Germany), all following the manufacturer's instructions.

IL-17F = assay: Cytokine assay: IL-17F production by human PBMC stimulated with PHA; conditions: IC50 class, read-out: IL-17F Inhib.
Experimental: as §1, §2, §3

INF-γ = assay: Cytokine assay: INF-γ production by human PBMC stimulated with PHA; conditions: IC50 class, read-out: IFN-gamma Inhib.
Experimental: as §1, §2, §3

Compound: C=CCCC(O)(CC1CC1)c1c(-c2c(F)cccc2Cl)noc1-c1cnn(CC(C)(C)O)c1C(F)(F)F (racemic) [Example 38, 2-[3-(2-chloro-6-fluorophenyl)-5-[1-(2-hydroxy-2-methylpropyl)-5-(trifluoromethyl)-1H-pyrazol-4-yl]-1,2-oxazol-4-yl]-1-cyclopropylhex-5-en-2-ol]
IC50 (IL-17A; Homo sapiens, PBMC): 500 to 5000 nM
IC50 (IL-17F; Homo sapiens, PBMC): ≥ 5000 nM
IC50 (INF-γ; Homo sapiens, PBMC): ≥ 5000 nM

Compound: CCOC(=O)c1c(-c2c(F)cccc2Cl)noc1-c1cnn([C@H]2C[C@@](C)(O)C2)c1C(F)(F)F [Example 11, ethyl 3-(2-chloro-6-fluorophenyl)-5-[1-(3-hydroxy-3-methylcyclobutyl)-5-(trifluoromethyl)-1H-pyrazol-4-yl]-1,2-oxazole-4-carboxylate]
IC50 (IL-17A): < 50 nM

Compound: Cc1nnc(-c2c(-c3c(F)cccc3Cl)noc2-c2cnn(CC(C)(C)O)c2C(F)(F)F)o1 [Example 30, 1-(4-(3-(2-chloro-6-fluorophenyl)-4-(5-methyl-1,3,4-oxadiazol-2-yl)isoxazol-5-yl)-5-(trifluoromethyl)-1H-pyrazol-1-yl)-2-methylpropan-2-ol]
IC50 (IL-17A; Homo sapiens, PBMC): 50 to 500 nM
IC50 (IL-17F; Homo sapiens, PBMC): 500 to 5000 nM
IC50 (INF-γ; Homo sapiens, PBMC): 500 to 5000 nM

Compound: CC(C)(O)Cn1ncc(-c2onc(-c3c(F)cccc3Cl)c2C(=O)CC2CCC2)c1C(F)(F)F [Example 36, 1-[3-(2-chloro-6-fluorophenyl)-5-[1-(2-hydroxy-2-methylpropyl)-5-(trifluoromethyl)-1H-pyrazol-4-yl]-1,2-oxazol-4-yl]-2-cyclobutylethan-1-one]
IC50 (IL-17A; Homo sapiens, PBMC): 500 to 5000 nM
IC50 (IL-17F; Homo sapiens, PBMC): 50 to 500 nM
IC50 (INF-γ; Homo sapiens, PBMC): 50 to 500 nM

Compound: C=CCCC(=O)c1c(-c2c(F)cccc2Cl)noc1-c1cnn(CC(C)(C)O)c1C(F)(F)F [Example 37, 1-[3-(2-chloro-6-fluorophenyl)-5-[1-(2-hydroxy-2-methylpropyl)-5-(trifluoromethyl)-1H-pyrazol-4-yl]-1,2-oxazol-4-yl]pent-4-en-1-one]
IC50 (IL-17A; Homo sapiens, PBMC): 50 to 500 nM
IC50 (IL-17F; Homo sapiens, PBMC): 50 to 500 nM
IC50 (INF-γ; Homo sapiens, PBMC): 50 to 500 nM

Compound: CC(C)(O)Cn1ncc(-c2onc(-c3c(F)cccc3Cl)c2C(=O)NC2CCCC2)c1C(F)(F)F [Example 41, 3-(2-chloro-6-fluorophenyl)-N-cyclopentyl-5-(1-(2-hydroxy-2-methylpropyl)-5-(trifluoromethyl)-1H-pyrazol-4-yl)isoxazole-4-carboxamide]
IC50 (IL-17A; Homo sapiens, PBMC): ≥ 5000 nM
IC50 (IL-17F; Homo sapiens, PBMC): ≥ 5000 nM
IC50 (INF-γ; Homo sapiens, PBMC): ≥ 5000 nM

Compound: CC(C)(O)Cn1ncc(-c2onc(-c3c(F)cccc3Cl)c2C(=O)NC2CCC2)c1C(F)(F)F [Example 43, 3-(2-chloro-6-fluorophenyl)-N-cyclobutyl-5-(1-(2-hydroxy-2-methylpropyl)-5-(trifluoromethyl)-1H-pyrazol-4-yl)isoxazole-4-carboxamide]
IC50 (IL-17A; Homo sapiens, PBMC): 500 to 5000 nM
IC50 (IL-17F; Homo sapiens, PBMC): 500 to 5000 nM
IC50 (INF-γ; Homo sapiens, PBMC): 500 to 5000 nM

Compound: Cc1c(-c2onc(-c3c(F)cccc3Cl)c2C(=O)OC2CC2)cnn1[C@H]1C[C@@](C)(O)C1 [Example 62, cyclopropyl 3-(2-chloro-6-fluorophenyl)-5-{5-methyl-1-[3-hydroxy-3-methylcyclobutyl]-1H-pyrazol-4-yl}-1,2-oxazole-4-carboxylate]
IC50 (IL-17A): < 50 nM

Compound: COCc1c(-c2c(F)cccc2Cl)noc1-c1cnn([C@H]2C[C@@](C)(O)C2)c1C [Example 70, 3-{4-[3-(2-chloro-6-fluorophenyl)-4-(methoxymethyl)-1,2-oxazol-5-yl]-5-methyl-1H-pyrazol-1-yl}-1-methylcyclobutan-1-ol]
IC50 (IL-17F; Homo sapiens, PBMC): 500 to 5000 nM
IC50 (INF-γ; Homo sapiens, PBMC): 500 to 5000 nM

Compound: COCc1c(-c2c(F)cccc2Cl)noc1-c1cnn([C@H]2C[C@](C)(O)C2)c1C [Example 71, 3-{4-[3-(2-chloro-6-fluorophenyl)-4-(methoxymethyl)-1,2-oxazol-5-yl]-5-methyl-1H-pyrazol-1-yl}-1-methylcyclobutan-1-ol]
IC50 (IL-17F; Homo sapiens, PBMC): 500 to 5000 nM
IC50 (INF-γ; Homo sapiens, PBMC): 500 to 5000 nM

Other lines, results leading:

IC50 (IL-17A): 500 to 5000 nM
IC50 (IL-17F): 500 to 5000 nM
IC50 (INF-γ): 500 to 5000 nM
Compound: COC(=O)c1c(-c2ccccc2Cl)noc1-c1cnn([C@H]2C[C@](C)(O)C2)c1C [Example 17, methyl 3-(2-chlorophenyl)-5-(1-(3-hydroxy-3-methylcyclobutyl)-5-methyl-1H-pyrazol-4-yl)isoxazole-4-carboxylate]

IC50 (IL-17A; Homo sapiens, PBMC): 500 to 5000 nM
IC50 (IL-17F; Homo sapiens, PBMC): 500 to 5000 nM
IC50 (INF-γ; Homo sapiens, PBMC): 500 to 5000 nM
Compound: COC(=O)c1c(-c2cccnc2OC)noc1-c1cnn(C[C@@H](C)O)c1C(F)(F)F [Example 21, methyl (R)-5-(1-(2-hydroxypropyl)-5-(trifluoromethyl)-1H-pyrazol-4-yl)-3-(2-methoxypyridin-3-yl)isoxazole-4-carboxylate]

IC50 (IL-17A; Homo sapiens, PBMC): 50 to 500 nM
IC50 (IL-17F; Homo sapiens, PBMC): 50 to 500 nM
IC50 (INF-γ; Homo sapiens, PBMC): < 50 nM
Compound: COC(=O)c1c(-c2ccccc2Cl)noc1-c1cnn(C[C@H](C)O)c1C(F)(F)F [Example 22, methyl (S)-3-(2-chlorophenyl)-5-(1-(2-hydroxypropyl)-5-(trifluoromethyl)-1H-pyrazol-4-yl)isoxazole-4-carboxylate]

IC50 (IL-17A; Homo sapiens, PBMC): 500 to 5000 nM
IC50 (IL-17F; Homo sapiens, PBMC): 50 to 500 nM
IC50 (INF-γ; Homo sapiens, PBMC): 50 to 500 nM
Compound: COC(=O)c1c(-c2ccccc2Cl)noc1-c1cnn(C[C@H](C)O)c1C [Example 24, methyl (S)-3-(2-chlorophenyl)-5-(1-(2-hydroxypropyl)-5-methyl-1H-pyrazol-4-yl)isoxazole-4-carboxylate]

IC50 (IL-17A; Homo sapiens, PBMC): 500 to 5000 nM
IC50 (IL-17F; Homo sapiens, PBMC): 500 to 5000 nM
IC50 (INF-γ; Homo sapiens, PBMC): 500 to 5000 nM
Compound: COC(=O)c1c(-c2c(F)cccc2Cl)noc1-c1cnn(C2CC(O)C2)c1C(F)(F)F (stereo not drawn) [Example 28, methyl 3-(2-chloro-6-fluorophenyl)-5-(1-(3-hydroxycyclobutyl)-5-(trifluoromethyl)-1H-pyrazol-4-yl)isoxazole-4-carboxylate]

IC50 (IL-17A; Homo sapiens, PBMC): 500 to 5000 nM
IC50 (IL-17F; Homo sapiens, PBMC): 500 to 5000 nM
IC50 (INF-γ; Homo sapiens, PBMC): 50 to 500 nM
Compound: COC[C@]1(O)C[C@@H](n2ncc(-c3onc(-c4ccccc4Cl)c3C(=O)OC)c2C(F)(F)F)C1 [Example 29, methyl 3-(2-chlorophenyl)-5-(1-(3-hydroxy-3-(methoxymethyl)cyclobutyl)-5-(trifluoromethyl)-1H-pyrazol-4-yl)isoxazole-4-carboxylate]

IC50 (IL-17A; Homo sapiens, PBMC): 500 to 5000 nM
IC50 (IL-17F; Homo sapiens, PBMC): 500 to 5000 nM
IC50 (INF-γ; Homo sapiens, PBMC): 500 to 5000 nM
Compound: CC(=O)c1c(-c2c(F)cccc2Cl)noc1-c1cnn(CC(C)(C)O)c1C(F)(F)F [Example 34, 1-(3-(2-chloro-6-fluorophenyl)-5-(1-(2-hydroxy-2-methylpropyl)-5-(trifluoromethyl)-1H-pyrazol-4-yl)-1,2-oxazol-4-yl)ethanone]

IC50 (IL-17A; Homo sapiens, PBMC): 500 to 5000 nM
IC50 (IL-17F; Homo sapiens, PBMC): ≥ 5000 nM
IC50 (INF-γ; Homo sapiens, PBMC): 500 to 5000 nM
Compound: COCC(=O)c1c(-c2c(F)cccc2Cl)noc1-c1cnn(CC(C)(C)O)c1C(F)(F)F [Example 39, 1-[3-(2-chloro-6-fluorophenyl)-5-[1-(2-hydroxy-2-methylpropyl)-5-(trifluoromethyl)-1H-pyrazol-4-yl]-1,2-oxazol-4-yl]-2-methoxyethan-1-one]

IC50 (IL-17A; Homo sapiens, PBMC): 500 to 5000 nM
IC50 (IL-17F; Homo sapiens, PBMC): 500 to 5000 nM
IC50 (INF-γ; Homo sapiens, PBMC): 500 to 5000 nM
Compound: COCC(=O)c1c(-c2c(F)cccc2Cl)noc1-c1cnn(C[C@@H](C)O)c1C(F)(F)F [Example 40, 1-[3-(2-chloro-6-fluorophenyl)-5-{1-[(2R)-2-hydroxypropyl]-5-(trifluoromethyl)-1H-pyrazol-4-yl}-1,2-oxazol-4-yl]-2-methoxyethan-1-one]

IC50 (IL-17A; Homo sapiens, PBMC): ≥ 5000 nM
IC50 (IL-17F; Homo sapiens, PBMC): ≥ 5000 nM
IC50 (INF-γ; Homo sapiens, PBMC): ≥ 5000 nM
Compound: CC(C)(O)Cn1ncc(-c2onc(-c3c(F)cccc3Cl)c2C(=O)NC2CC2)c1C(F)(F)F [Example 42, 3-(2-chloro-6-fluorophenyl)-N-cyclopropyl-5-(1-(2-hydroxy-2-methylpropyl)-5-(trifluoromethyl)-1H-pyrazol-4-yl)isoxazole-4-carboxamide]

IC50 (IL-17A; Homo sapiens, PBMC): 500 to 5000 nM
IC50 (IL-17F; Homo sapiens, PBMC): 500 to 5000 nM
IC50 (INF-γ; Homo sapiens, PBMC): 500 to 5000 nM
Compound: C[C@@H](O)Cn1ncc(-c2onc(-c3c(F)cccc3Cl)c2C(=O)NC2CC2)c1C(F)(F)F [Example 45, 3-(2-chloro-6-fluorophenyl)-N-cyclopropyl-5-(1-((2R)-2-hydroxypropyl)-5-(trifluoromethyl)-1H-pyrazol-4-yl)isoxazole-4-carboxamide]

IC50 (IL-17A; Homo sapiens, PBMC): 500 to 5000 nM
IC50 (IL-17F; Homo sapiens, PBMC): 50 to 500 nM
IC50 (INF-γ; Homo sapiens, PBMC): 50 to 500 nM
Compound: C[C@@H](O)Cn1ncc(-c2onc(-c3c(F)cccc3Cl)c2C(=O)NC2CCC2)c1C(F)(F)F [Example 46, 3-(2-chloro-6-fluorophenyl)-N-cyclobutyl-5-(1-((2R)-2-hydroxypropyl)-5-(trifluoromethyl)-1H-pyrazol-4-yl)isoxazole-4-carboxamide]

IC50 (IL-17A; Homo sapiens, PBMC): 50 to 500 nM
IC50 (IL-17F; Homo sapiens, PBMC): 50 to 500 nM
IC50 (INF-γ; Homo sapiens, PBMC): 50 to 500 nM
Compound: Cc1c(-c2onc(-c3ccccc3Cl)c2C(=O)OC2COC2)cnn1C[C@H](C)O [Example 47, oxetan-3-yl 3-(2-chlorophenyl)-5-{1-[(2S)-2-hydroxypropyl]-5-methyl-1H-pyrazol-4-yl}-1,2-oxazole-4-carboxylate]

IC50 (IL-17A): 500 to 5000 nM
IC50 (IL-17F): 500 to 5000 nM
IC50 (INF-γ): 500 to 5000 nM
Compound: C[C@]1(O)C[C@H](n2ncc(-c3onc(-c4ccccc4Cl)c3C(=O)OC3CC3)c2C(F)(F)F)C1 [Example 48, cyclopropyl 3-(2-chlorophenyl)-5-(1-(3-hydroxy-3-methylcyclobutyl)-5-(trifluoromethyl)-1H-pyrazol-4-yl)isoxazole-4-carboxylate]
